These results are taken from patent publication US8791144B2, “Substituted N-phenyl-1-(4-Pyridinyl)-1H-pyrazol-3-amines” (Janssen Pharmaceutica NV, priority 2009, dated 2014).

Data set [1] deals with T1, hα7-wt nAChR (Homo sapiens, UniProt P36544). As to the kind of experiment: Ca2+ flux imaging (FDSS): potentiation of the choline response. The format is cell-based. Particulars: for EC50: Ca2+ assay as described in D.1, potentiation of choline response, hα7-wt nAChR, read-out: Potency (pEC50) (converted). The protocol:
• a) Assay Buffer • Hanks buffered saline solution (HBSS, Invitrogen, Belgium), supplemented with 10 mM HEPES (Invitrogen, Belgium), CaCl2 to a final concentration of 5 mM, 0.1% Bovine serum albumin (Sigma-Aldrich NV, Belgium). • b) Calcium-Sensitive Dye—Fluo-4AM • Fluo-4AM (Molecular Probes, USA) was dissolved in DMSO containing 10% Pluronic acid (Molecular Probes, USA) to give a stock solution which was diluted in assay buffer supplemented with 5 mM probenicid (Sigma, Aldrich NV, Belgium) to give a final concentration of 2 μM. • c) 384-Well Plates • Black 384 well plate black/clear plates, PDL pre-coated (Corning, Incorporated, USA) • d) Calcium Flux Measurement • A Functional drug screening system (FDSS, Hamamatsu) was used to measure intracellular free-calcium flux signals. Method
Monolayers of hα7-wt nAChR-expressing cells were grown in multi-well plates, in particular black-sided, transparent bottomed 384 well plates coated with poly-D-lysine for 24 hours prior to loading with a fluorescent calcium indicator, in a particular embodiment loading with fluo-4AM for up to 120 minutes.
PAM activity was detected in real time by applying the compounds to be tested to the loaded cells along with a α7 nicotinic receptor agonist during constant monitoring of cellular fluorescence in a FDSS. Compounds giving peak fluorescent responses greater than the response due to agonist alone, were considered to be α7 nAChR PAM's. In a particular embodiment, the α7 nicotinic receptor agonist was choline, a more particular embodiment choline applied at a sub-maximal concentration of 100 μM. In a further setting of the present invention the compounds to be tested were applied prior to the α7 nicotinic receptor agonist, in a particular embodiment up to 10 minutes prior to the agonist.
A control response to choline was calculated on each plate from the difference in peak in fluorescence in wells receiving either choline or assay buffer alone. Compounds of the present invention were tested at a concentration range from 0.01 μM to 30 μM. Compounds were considered to have an interesting activity when they potentiated the choline signal at least with 200% when tested at a concentration of 30 μM (the efficacy of 100 μM choline was defined as 100% in the absence of a PAM). An EC50 (or pEC50) was determined as a concentration relating to half the maximal effect, when a clear sigmoidal curve with top plateau was obtained.
In general terms: Calcium assays in cells follow changes in intracellular calcium, usually with a dye or a luminescent sensor.

Data set [2] addresses T1, hα7-wt nAChR. Description: Patch-clamp current recording (whole-cell voltage clamp), potentiation of choline current and PAM type. The format is cell-based. Also noted: key: Type 0 compounds minimally enhance the effect size of the current elicited by 1 mM choline.; Type 1 compounds enhance the effect size of the current elicited by 1 mM choline but minimally alter the kinetics of the receptor.; Type 2 compounds enhance the effect size of the current elicited by 1 mM choline while reducing the rate and/or the extent of desensitization.; Type 3 compounds enhance the effect size of the current elicited by 1 mM choline. When tested at higher concentrations up to 10 μM they completely inhibit desensitization, in particular a 1 mM choline application of 250 milliseconds.; Type 4 compounds allow for an initial desensitization of the receptor followed by a re-opening of the receptor during agonist application. The note with it: hα7-wt nAChR-expressing GH4C1 cells, 1 mM choline. The protocol: The compounds of the present invention are classified as type 0-4, based on qualitative kinetic properties, as determined by whole-cell voltage-clamp recordings. This classification is based on the effect of an α7 PAM compound, as described hereinbefore, on the signal elicited by an agonist application. In particular, said agonist is choline at a concentration of 1 mM. In a preferred experimental setting, said α7 PAM compound and choline are simultaneously applied to the cell, as described hereinafter. Desensitization is defined as the closure of the receptor upon activation during the application of the agonist in whole-cell voltage-clamp electrophysiology measurements seen as the reduction of the […] current after initial activation by the agonist.
The definition of the PAM types 0-4 is described hereinafter: • Type 0 compounds minimally enhance the effect size of the current elicited by 1 mM choline. • Type 1 compounds enhance the effect size of the current elicited by 1 mM choline but minimally alter the kinetics of the receptor. In particular, the rate and the extent of desensitization, elicited by the agonist, is not affected. The compound-modulated response to 1 mM choline, therefore, is a close to linear scaling of the 1 mM choline response in absence of the α7 PAM compound. • Type 2 compounds enhance the effect size of the current elicited by 1 mM choline while reducing the rate and/or the extent of desensitization. • Type 3 compounds enhance the effect size of the current elicited by 1 mM choline. […] At low-potency concentrations of the α7 PAM compound, the agonist-induced activation, which is followed by desensitization, can still be separated from the compound-induced re-opening as an initial inward current-maximum. At higher potency concentrations of the α7 PAM compound, the re-opening occurs faster than the closure due to desensitization so that the initial current-maximum disappears.
A compound was considered to have interesting PAM-like activity when the potentiation of the peak current was at least 200% compared to the control choline response (=100%). Such compounds are classified as belonging to a particular PAM type in the Experimental Part. Compounds not meeting the condition are not classified as belonging to a particular PAM-type.
The compounds also have a potentiating effect on the response to choline when measured by whole-cell patch clamp electrophysiology in GH4C1 cells stably over-expressing the human wild-type α7 receptor.
Patch-clamp recording from mammalian cells has provided a powerful means of assessing the function of membrane-bound proteins thought to be subunits of ligand-gated ion channels. Activation of such proteins by endogenous or exogenous ligands cause opening of a pore associated with the receptor through which ions flow down their electrochemical gradient. In the case of the hα7-wt nAChR-expressing GH4C1 recombinant cell line the preferential permeability to calcium of this receptor means that calcium flows into the cell upon activation by ACh, choline and other nicotinic ligands giving rise to a calcium current. Since this receptor rapidly desensitizes in the presence of agonist it is important an application system is used which is capable of very rapid switching of solutions (<100 ms) to prevent partial or full desensitisation of receptor responses coincident with the time of agonist application. Consequently, a second convenient technique to assess the enhancement of nicotinic efficacy is patch-clamp recording from hα7-wt nAChR-expressing GH4C1 cells coupled with a rapid-application system.
• a) Assay Buffers • The external recording solution consisted of 152 mM NaCl, 5 mM KCl, 1 mM MgCl2, 1 mM Calcium, 10 mM HEPES; pH 7.3. […]
(In patch-clamp work, channel activity is measured electrically.)

What is called melting point is the temperature of the solid-liquid transition.

T1 sequence (P36544 23-502): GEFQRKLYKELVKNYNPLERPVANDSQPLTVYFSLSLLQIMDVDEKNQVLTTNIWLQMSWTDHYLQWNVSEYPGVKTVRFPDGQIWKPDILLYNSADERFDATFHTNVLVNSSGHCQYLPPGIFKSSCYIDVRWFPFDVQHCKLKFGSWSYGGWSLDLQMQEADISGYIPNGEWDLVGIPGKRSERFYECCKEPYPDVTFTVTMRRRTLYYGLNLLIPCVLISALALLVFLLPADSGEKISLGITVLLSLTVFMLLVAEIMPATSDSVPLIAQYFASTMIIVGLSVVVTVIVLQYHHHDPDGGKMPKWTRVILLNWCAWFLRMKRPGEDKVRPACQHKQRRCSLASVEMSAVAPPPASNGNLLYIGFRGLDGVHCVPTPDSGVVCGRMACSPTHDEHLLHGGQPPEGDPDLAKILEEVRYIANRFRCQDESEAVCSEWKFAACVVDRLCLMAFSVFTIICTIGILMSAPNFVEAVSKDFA

On to `CC[C@H](O)Cc1cc(Nc2ccc3c(c2)OC(F)(F)O3)nn1-c1ccnc(C)c1` [Compound 93, (alphaS)-3-[(2,2-difluoro-1,3-benzodioxol-5-yl)amino]-alpha-ethyl-1-(2-methyl-4-pyridinyl)-1H-pyrazole-5-ethanol], for which the melting point stood at 138.3 °C. In addition, the EC50 in data set [1] was 1700 nM. Further, the PAM type in data set [2] was 2.
The matching figures for `Cc1cc(-n2nc(Nc3cccc(Cl)c3F)cc2CC(=O)NC2CC2)cc(C)n1` [Compound 78, 3-[(3-chloro-2-fluorophenyl)amino]-N-cyclopropyl-1-(2,6-dimethyl-4-pyridinyl)-1H-pyrazole-5-acetamide]: 222.9 °C, 407 nM and 2.
For `Cc1cc(-n2nc(Nc3cccc(OC(F)(F)F)c3)cc2CC(=O)NCC2CC2)ccn1` [Compound 119, N-(cyclopropylmethyl)-1-(2-methyl-4-pyridinyl)-3-[[3-(trifluoromethoxy)phenyl]amino]-1H-pyrazole-5-acetamide], in that order: 191.7 °C, 324 nM and 2.
`Cc1cc(-n2nc(Nc3ccc4c(c3)OC(F)(F)O4)cc2CCCO)ccn1` [Compound 92, 3-[(2,2-difluoro-1,3-benzodioxol-5-yl)amino]-1-(2-methyl-4-pyridinyl)-1H-pyrazole-5-propanol]: the melting point was 163.3 °C. In data set [1], the EC50 is 2340 nM. Moreover, the PAM type in data set [2] is 2.
`COc1cc(Cl)cc(Nc2cc(CC(=O)NC3CCC3)n(-c3ccnc(C)c3)n2)c1` [Compound 83, 3-[(3-chloro-5-methoxyphenyl)amino]-N-cyclobutyl-1-(2-methyl-4-pyridinyl)-1H-pyrazole-5-acetamide] came in with a melting point of 236.4 °C. Further, in data set [1], the EC50 is 145 nM. In addition, in data set [2], the PAM type was determined as 4.
In the case of `COCc1cc(Nc2ccc(F)c(F)c2)nn1-c1ccnc(C)c1` [Compound 22, N-(3,4-difluorophenyl)-5-(methoxymethyl)-1-(2-methyl-4-pyridinyl)-1H-pyrazol-3-amine], the melting point came out at 184.2 °C. In data set [1], the EC50 is 1910 nM. Further, in data set [1] (read-out: % Efficacy), the Emax turned out to be 963%. The PAM type in data set [2] stood at 0.
Molecule `Cc1cc(-n2nc(Nc3cccc(Cl)c3F)cc2CC(=O)NC2CCC2)ccn1` [Compound 82, 3-[(3-chloro-2-fluorophenyl)amino]-N-cyclobutyl-1-(2-methyl-4-pyridinyl)-1H-pyrazole-5-acetamide] came in with a melting point of 223.2 °C. The EC50 in data set [1] was 490 nM. In addition, in data set [2], the PAM type is given as 2.
On to `CCNC(=O)Cc1cc(Nc2cccc(OC(F)(F)F)c2)nn1-c1cc(C)nc(C)c1` [Compound 114, 1-(2,6-dimethyl-4-pyridinyl)-N-ethyl-3-[[3-(trifluoromethoxy)phenyl]amino]-1H-pyrazole-5-acetamide], for which the melting point is 224.2 °C. In addition, the EC50 in data set [1] is 309 nM. Also, the PAM type in data set [2] was found to be 2.
For `COc1cc(Nc2cc(CCC(=O)N(C)C)n(-c3ccnc(C)c3)n2)cc(C(F)(F)F)c1` [Compound 9, 3-[[3-methoxy-5-(trifluoromethyl)phenyl]amino]-N,N-dimethyl-1-(2-methyl-4-pyridinyl)-1H-pyrazole-5-propanamide], in that order: 146.4 °C, 170 nM and 4.
Molecule `CC[C@H](O)Cc1cc(Nc2cccc(Cl)c2)nn1-c1ccnc(C)c1` [Compound 57, (alphaS)-3-[(3-chlorophenyl)amino]-alpha-ethyl-1-(2-methyl-4-pyridinyl)-1H-pyrazole-5-ethanol] came in with a melting point of 149.3 °C. Further, in data set [1], the EC50 was 2240 nM. Besides, the PAM type in data set [2] stood at 2.
As for `Cc1cc(-n2nc(Nc3ccc4c(c3)OC(F)(F)O4)cc2CCC(=O)N(C)C)ccn1` [Compound 99, 3-[(2,2-difluoro-1,3-benzodioxol-5-yl)amino]-N,N-dimethyl-1-(2-methyl-4-pyridinyl)-1H-pyrazole-5-propanamide], the melting point worked out at 132 °C. In data set [1], the EC50 is 490 nM. In addition, the PAM type in data set [2] is listed as 4.
`CCNC(=O)Cc1cc(Nc2cccc(C(F)(F)F)c2)nn1-c1ccnc(C)c1` [Compound 44, N-ethyl-1-(2-methyl-4-pyridinyl)-3-[[3-(trifluoromethyl)phenyl]amino]-1H-pyrazole-5-acetamide]: the melting point is 228.9 °C. The EC50 in data set [1] is 603 nM. Further, in data set [2], the PAM type turned out to be 2.
For `CC[C@H](O)Cc1cc(Nc2cccc(OC(F)(F)F)c2)nn1-c1ccnc(C)c1` [Compound 106, (alphaS)-alpha-ethyl-1-(2-methyl-4-pyridinyl)-3-[[3-(trifluoromethoxy)phenyl]amino]-1H-pyrazole-5-ethanol], in that order: 147.3 °C, 1820 nM and 2.
The matching figures for `CCNC(=O)Cc1cc(Nc2cc(OC)cc(C(F)(F)F)c2)nn1-c1ccnc(C)c1` [Compound 45, N-ethyl-3-[[3-methoxy-5-(trifluoromethyl)phenyl]amino]-1-(2-methyl-4-pyridinyl)-1H-pyrazole-5-acetamide]: 248.6 °C, 200 nM and 4.
On to `CC[C@@H](O)Cc1cc(Nc2cccc(C(F)(F)F)c2)nn1-c1ccnc(C)c1` [Compound 35, (alphaR)-alpha-ethyl-1-(2-methyl-4-pyridinyl)-3-[[3-(trifluoromethyl)phenyl]amino]-1H-pyrazole-5-ethanol], for which the melting point worked out at 170 °C. Moreover, the EC50 in data set [1] was 692 nM. In addition, in data set [2], the PAM type turned out to be 2.
